Among the data in ChEMBL document CHEMBL1127189, “A facile synthesis of the novel Neurokinin A antagonist SR 48968” (Bioorg Med Chem Lett, 1993) are ED50 values, retold here.

The subject of experiment [1] is Cavia porcellus. The experiment in a line: Intraperitoneal dose required for inhibition of [Nle10]-NKA4-10 induced bronchoconstriction in guinea pig. It counts as functional. The settings on record: ip.
Experiment [2] has as its system Cavia porcellus. In words: Intravenous dose required for inhibition of [Nle10]-NKA4-10 induced bronchoconstriction in guinea pig. It counts as functional.

`CC(=O)NC1(c2ccccc2)CCN(CC[C@H](CN(C)C(=O)c2ccccc2)c2ccc(Cl)c(Cl)c2)CC1` [SAREDUTANT]: the ED50 – broadly, the dose that gives a 50% effect, or the effect in half of the subjects – stood at 0.35 mg/kg in the experiment with Cavia porcellus [1] and 0.037 mg/kg in the experiment on Cavia porcellus [2].
